From ChEMBL document CHEMBL1151470, “Pharmacokinetic interaction between fosamprenavir-ritonavir and rifabutin in healthy subjects” (Antimicrob Agents Chemother, 2008)

Assays:
Type in all cases: organism-based
Details in all cases: in vivo
Homo sapiens [1] = experiment: Toxicity in human assessed as rash generalized at 150 mg, […] with 700 mg fosamprenavir and 100 mg ritonavir po BID
Homo sapiens [2] = experiment: Toxicity in human assessed as blood and lymphatic system disorder at 300 mg, po QD
Homo sapiens [3] = experiment: Toxicity in human assessed as blood and lymphatic system disorder at 150 mg, […] with 700 mg fosamprenavir and 100 mg ritonavir po BID
Homo sapiens [4] = experiment: Toxicity in human assessed as neutropenia at 300 mg, po QD
Homo sapiens [5] = experiment: Toxicity in human assessed as psychiatric disorder at 150 mg, […] with 700 mg fosamprenavir and 100 mg ritonavir po BID
Homo sapiens [6] = experiment: Toxicity in human assessed as insomnia at 300 mg, po QD
Homo sapiens [7] = experiment: Toxicity in human assessed as skin and subcutaneous tissue disorder at 150 mg, […] with 700 mg fosamprenavir and 100 mg ritonavir po BID
Homo sapiens [8] = experiment: Toxicity in human assessed as neutropenia at 150 mg, […] with 700 mg fosamprenavir and 100 mg ritonavir po BID
Homo sapiens [9] = experiment: Toxicity in human assessed as rash generalized at 300 mg, po QD
Homo sapiens [10] = experiment: Toxicity in human assessed as thrombocytopenia at 300 mg, po QD
Homo sapiens [11] = experiment: Toxicity in human assessed as decrease in neutrophile count at 300 mg, po QD; design: scale not given: the % may be the effect or the level left
Homo sapiens [12] = experiment: Toxicity in human assessed as insomnia at 150 mg, […] with 700 mg fosamprenavir and 100 mg ritonavir po BID
Homo sapiens [13] = experiment: Toxicity in human assessed as thrombocytopenia at 150 mg, […] with 700 mg fosamprenavir and 100 mg ritonavir po BID
Homo sapiens [14] = experiment: Toxicity in human assessed as psychiatric disorder at 300 mg, po QD
Homo sapiens [15] = experiment: Toxicity in human assessed as fatigue at 150 mg, […] with 700 mg fosamprenavir and 100 mg ritonavir po BID
Homo sapiens [16] = experiment: Toxicity in human assessed as decrease in neutrophile count at 150 mg, […] with 700 mg fosamprenavir and 100 mg ritonavir po BID; design: scale not given: the % may be the effect or the level left
Homo sapiens [17] = experiment: Toxicity in human assessed as increase in neutrophile count at 150 mg, […] with 700 mg fosamprenavir and 100 mg ritonavir po BID
Homo sapiens [18] = experiment: Toxicity in human assessed as increase in ALT level at 300 mg, po QD
Homo sapiens [19] = experiment: Toxicity in human assessed as general disorder at 300 mg, po QD
Homo sapiens [20] = experiment: Toxicity in human assessed as chills at 300 mg, po QD
Homo sapiens [21] = experiment: Toxicity in human assessed as chills at 150 mg, […] with 700 mg fosamprenavir and 100 mg ritonavir po BID
Homo sapiens [22] = experiment: Toxicity in human assessed as pain at 300 mg, po QD
Homo sapiens [23] = experiment: Toxicity in human assessed as pain at 150 mg, […] with 700 mg fosamprenavir and 100 mg ritonavir po BID
Homo sapiens [24] = experiment: Toxicity in human assessed as musculoskeletal and connective tissue disorder at 300 mg, po QD
Homo sapiens [25] = experiment: Toxicity in human assessed as musculoskeletal and connective tissue disorder at 150 mg, […] with 700 mg fosamprenavir and 100 mg ritonavir po BID
Homo sapiens [26] = experiment: Toxicity in human assessed as myalgia at 300 mg, po QD
Homo sapiens [27] = experiment: Toxicity in human assessed as increase in ALT level at 150 mg, […] with 700 mg fosamprenavir and 100 mg ritonavir po BID

CO[C@H]1/C=C/O[C@@]2(C)Oc3c(C)c(O)c4c(c3C2=O)C2=NC3(CCN(CC(C)C)CC3)NC2=C(NC(=O)/C(C)=C\C=C\[C@H](C)[C@H](O)[C@@H](C)[C@@H](O)[C@@H](C)[C@H](OC(C)=O)[C@@H]1C)C4=O [RIFABUTIN]
Activity (Homo sapiens [1]): 2%
Activity (Homo sapiens [2]): 3%
Activity (Homo sapiens [3]): 3%
Activity (Homo sapiens [4]): 2%
Activity (Homo sapiens [5]): 2%
Activity (Homo sapiens [6]): 4%
Activity (Homo sapiens [7]): 6%
Activity (Homo sapiens [8]): 1%
Activity (Homo sapiens [9]): 0%
Activity (Homo sapiens [10]): 0%
Activity (Homo sapiens [11]): 3%
Activity (Homo sapiens [12]): 1%
Activity (Homo sapiens [13]): 3%
Activity (Homo sapiens [14]): 5%
Activity (Homo sapiens [15]): 4%
Activity (Homo sapiens [16]): 3%
Activity (Homo sapiens [17]): 3%
Activity (Homo sapiens [18]): 0%
Activity (Homo sapiens [19]): 3%
Activity (Homo sapiens [20]): 0%
Activity (Homo sapiens [21]): 3%
Activity (Homo sapiens [22]): 2%
Activity (Homo sapiens [23]): 1%
Activity (Homo sapiens [24]): 2%
Activity (Homo sapiens [25]): 5%
Activity (Homo sapiens [26]): 0%
Activity (Homo sapiens [27]): 5%
